Some test systems named below: BT-549 breast; SN12C renal; MDA-MB-435; PC-3 prostate; TK-10 renal; NCI-H23 lung; UACC-62 melanoma; 786-0 renal; HL-60(TB) leukemia; UO-31 renal.
Assay in all cases: NCI anticancer screen, dose series, 48 h

Each structure is given as a SMILES string.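 In this assay, cells in 96-well plates receive the compound at five concentrations for 48 hours. Endpoints are linearly interpolated between the surrounding concentrations. At the TGI there is no net growth.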

For the compound `CN(C)CCn1c(=O)c2ccc(NCCCN(C)CCCNc3ccc4c(=O)n(CCN(C)C)c(=O)n5c6ccc(O)cc6c(=O)c3c45)c3c(=O)c4cc(O)ccc4n(c1=O)c23`, the TGI is 0.691 µM in the experiment with BT-549 breast; 0.553 µM with SN12C renal; 0.18 µM with MDA-MB-435; 0.31 µM in the experiment on PC-3 prostate; 1.63 µM with TK-10 renal; 0.226 µM in the experiment with NCI-H23 lung. The TGI was 0.215 µM in the experiment with UACC-62 melanoma, 1.05 µM with 786-0 renal, 0.701 µM in the experiment with HL-60(TB) leukemia and 0.452 µM in the experiment on UO-31 renal.
Turning to `c1ccc(C2=NC3OC2c2ccccc23)cc1` (stereo not drawn), the TGI in the experiment on BT-549 breast, with SN12C renal, in the experiment on MDA-MB-435, in the experiment with PC-3 prostate, with TK-10 renal and with NCI-H23 lung was more than 10 µM each time. Also, the TGI in the experiment with UACC-62 melanoma, in the experiment with 786-0 renal and in the experiment with HL-60(TB) leukemia was more than 10 µM throughout.
For the compound `N#Cc1c(-c2ccc([N+](=O)[O-])cc2)cc(-c2ccc(Nc3ccnc4cc(Cl)ccc34)cc2)[nH]c1=O`, the TGI with BT-549 breast, in the experiment on MDA-MB-435, with PC-3 prostate, in the experiment with TK-10 renal, with NCI-H23 lung and in the experiment on UACC-62 melanoma was more than 100 µM each time. The TGI in the experiment with 786-0 renal, with HL-60(TB) leukemia and in the experiment on UO-31 renal was more than 100 µM each time.
Consider `[N-]=[N+]=CC(=O)C1CCCN1C(=O)c1ccccc1` (stereo not drawn), for which the TGI in the experiment with BT-549 breast, in the experiment with SN12C renal, with MDA-MB-435, in the experiment on PC-3 prostate, in the experiment with TK-10 renal and with NCI-H23 lung was more than 10 µM in each case. Besides, the TGI with UACC-62 melanoma, with 786-0 renal, with HL-60(TB) leukemia and in the experiment on UO-31 renal was more than 10 µM in each case.
As to `COc1ccc(C2Oc3ccc(Cl)cc3C=C2[N+](=O)[O-])cc1` (stereo not drawn), the TGI with BT-549 breast, in the experiment on SN12C renal, with MDA-MB-435, in the experiment with PC-3 prostate, in the experiment on TK-10 renal and in the experiment with NCI-H23 lung was more than 100 µM each time. Besides, the TGI in the experiment with UACC-62 melanoma, in the experiment on 786-0 renal, in the experiment with HL-60(TB) leukemia and in the experiment with UO-31 renal was more than 100 µM throughout.
As for `O=C(ON=C1c2ccccc2C(Br)C(Br)c2ccccc21)c1ccccc1` (stereo not drawn), the TGI is 35.7 µM in the experiment with BT-549 breast; 42.9 µM with SN12C renal; 34.9 µM in the experiment with MDA-MB-435; 40.2 µM in the experiment on PC-3 prostate; 31.5 µM in the experiment on TK-10 renal; 37.8 µM with NCI-H23 lung. The TGI worked out at 32.7 µM in the experiment on UACC-62 melanoma, 23 µM in the experiment with 786-0 renal, 1.22 µM with HL-60(TB) leukemia and 8.32 µM in the experiment with UO-31 renal.
With `CCOC1C=CC(=O)C(CO)O1` (stereo not drawn), the TGI with BT-549 breast is 26.1 µM; in the experiment on SN12C renal, 26.8 µM; with MDA-MB-435, 25.6 µM; in the experiment on PC-3 prostate, 28.9 µM; with TK-10 renal it was 22.7 µM; with NCI-H23 lung, 27.6 µM. Besides, the TGI with UACC-62 melanoma was determined as 25.9 µM; in the experiment on 786-0 renal, 14.2 µM; with HL-60(TB) leukemia, 20.9 µM; with UO-31 renal, 4.77 µM.
As for `O=C(CC(NC(=O)C(F)(F)F)C(=O)O)OCc1ccccc1` (stereo not drawn), the TGI in the experiment with BT-549 breast, in the experiment with SN12C renal, with MDA-MB-435, in the experiment on PC-3 prostate, in the experiment with TK-10 renal and in the experiment with NCI-H23 lung was more than 100 µM in each case. Further, the TGI in the experiment on UACC-62 melanoma, in the experiment with 786-0 renal, in the experiment with HL-60(TB) leukemia and in the experiment with UO-31 renal was more than 100 µM throughout.
Take `COc1ccc2nc(NC(=O)/C(C#N)=C/c3ccccc3)sc2c1`: the TGI in the experiment on BT-549 breast is more than 100 µM; in the experiment on SN12C renal, more than 100 µM; with MDA-MB-435, more than 100 µM; in the experiment on PC-3 prostate it was more than 100 µM; with TK-10 renal it was 88 µM; in the experiment with NCI-H23 lung, more than 100 µM. Further, the TGI in the experiment with UACC-62 melanoma is more than 100 µM; in the experiment with 786-0 renal, more than 100 µM; in the experiment on HL-60(TB) leukemia, 36.7 µM; in the experiment on UO-31 renal, more than 100 µM.
Turning to `C[n+]1cc2cc(O)c(O)cc2c2ccc3cc(O)c(O)cc3c21`, the TGI was 9.93 µM in the experiment on BT-549 breast; 26 µM with SN12C renal; more than 100 µM in the experiment on MDA-MB-435; 34.4 µM in the experiment with PC-3 prostate; more than 73.2 µM in the experiment on TK-10 renal; 18.3 µM with NCI-H23 lung. The figures for the TGI in the experiment with UACC-62 melanoma, in the experiment with 786-0 renal and with UO-31 renal were 5.34 µM, 9.21 µM and 5.61 µM, respectively.
Regarding `CCOC(=O)c1c(N2CCCC2)[nH]c(=O)c(C(c2ccc(OC)cc2)c2c(O)c(C(=O)OCC)c(N3CCCC3)[nH]c2=O)c1O`, the TGI in the experiment on BT-549 breast, in the experiment on SN12C renal, in the experiment on MDA-MB-435, with PC-3 prostate, with TK-10 renal and in the experiment on NCI-H23 lung was more than 100 µM in each case. For the same compound, the TGI with UACC-62 melanoma, with 786-0 renal and in the experiment with UO-31 renal was more than 100 µM each time.
As for `COc1ccc2c(c1)c1c(n2CCN2CCCCC2)-c2cccc(OC)c2CC1`, the TGI is 41.6 µM with BT-549 breast; 36.8 µM with SN12C renal; 31.5 µM in the experiment with MDA-MB-435; 35.6 µM in the experiment on PC-3 prostate; 32.8 µM in the experiment with TK-10 renal; 32.1 µM with NCI-H23 lung. Moreover, the TGI in the experiment on UACC-62 melanoma was 32.9 µM; in the experiment on 786-0 renal, 55.4 µM; with UO-31 renal, 24.7 µM.
On to `COC(=O)CNC(=O)C(CSC(=O)OCC1c2ccccc2-c2ccccc21)NC(=O)CCC(NC(=O)OCC1c2ccccc2-c2ccccc21)C(=O)OC` (stereo not drawn), for which the TGI in the experiment with BT-549 breast was 31.3 µM; with SN12C renal it was more than 100 µM; in the experiment on MDA-MB-435 it was 67.4 µM; with PC-3 prostate it was more than 100 µM; in the experiment with TK-10 renal it was more than 100 µM; with NCI-H23 lung, 37 µM. Moreover, the TGI in the experiment with 786-0 renal is 26.6 µM; with HL-60(TB) leukemia, 46.8 µM; in the experiment with UO-31 renal, 35 µM.
Take `c1c[nH]c(-c2cccc3nsnc23)c1`: the TGI in the experiment with BT-549 breast, with SN12C renal, in the experiment with MDA-MB-435, in the experiment on PC-3 prostate, in the experiment on TK-10 renal and in the experiment on NCI-H23 lung was more than 100 µM throughout. In addition, the TGI in the experiment on UACC-62 melanoma, with 786-0 renal and in the experiment on UO-31 renal was more than 100 µM in each case.

For the origin of these results see PubChem BioAssay (NCI).
